Patent publication US20090291857A1, “METHODS TO IDENTIFY INHIBITORS OF THE UNFOLDED PROTEIN RESPONSE” (THE BOARD OF TRUSTEES OF THE LELAND STANFORD JUNIOR …, priority 2006, published 2009)

Key:
Grp78 = Grp78 immunoblot in HT1080 cells; format: cell-based, human; conditions: 2.5 μM, 16 hours (also 24 or 36 hours)
Experimental: (§1) Cells (2×10^6) were cultured in 10-cm dishes, collected using a cell scraper at 4° C., and lysed by addition of 150 μl cell lysis buffer [50 mM Tris pH 7.4, 150 mM NaCl, 10% glycerol, 0.5% Triton X-100. 0.5% NP-40, 2 mM Na3VO4, 20 mM beta-glycerophosphate, 10 mM NaF, 1 mM DTT, 1 mM PMSF). Lysates were centrifuged for 5 min at 10,000×g, and proteins (˜40 μg) were resolved by SDS-PAGE followed by semi-dry transfer to nitrocellulose membranes. Membranes were blocked in TBS-5% milk supplemented with 0.1% Tween-20. The blots were then probed overnight with relevant antibodies, washed, and incubated for 2 hours with species-specific secondary antibodies conjugated to horseradish peroxidase. After washing in block solution, immunoreactive material was detected by enhanced chemiluminescence (SuperSignal West Dura Extended, Pierce, Inc., Rockville, Ill.).
HT1080 cells were exposed to DMSO vehicle (lane 1), irestatin 9389 (2.5 μM; lane 2) for 16 hours or Tm (5 μg/ml; lane 3) for 8 hours. Following treatments, cells were harvested, lysed, and analyzed by immunoblotting using anti-Grp78 antibody (top) or anti-actin (bottom) as a loading control. […] Cell lysates were analyzed by Western immunoblotting using anti-IRE1α (bottom) or anti-phospho-IRE1α antibodies (top). […] Lysates were analyzed by Western blot using antisera specific for phospho-JNK1 (top) or total JNK1 (bottom). […]

XBP-1s = experiment: Western immunoblot analysis of XBP-1s in HT1080 cells; format: cell-based, human; conditions: 2 μM; for levels of XBP-1s under hypoxia: 24 hours of hypoxia
Experimental: Cells were harvested, lysed, and analyzed by Western blot using anti-XBP-1 antisera (lower panel) or anti-HIF-1 antisera (top panel) to confirm hypoxia exposure.
as §1
A. XBP-luciferase reporter construct. Firefly luciferase was inserted downstream of the IRE1α splice site in human XBP-1 to enable the conditional translation of luciferase under ER stress in an IRE1α-dependent manner. B. Selective inhibition of the XBP-luciferase reporter by irestatin 9389. […] After 24 hours, luciferase activity was analyzed in an automated plate reader. For each cell line, values are expressed as the percent inhibition of the median for Tm/Tg-treated wells, corrected for background. […] Values are expressed as the fold increases over uninduced levels. […] Cells were harvested, lysed, and analyzed by immunoblotting with antisera specific for HIF-1α (top), XBP-1s (middle) or actin (bottom). […] Total RNA was analyzed by Northern blotting using radiolabeled probes specific for P58^IPK or DER-1. […]
Since these assays employed a chimeric XBP-luciferase substrate, we next determined whether irestatin 9389 could inhibit the function of endogenous XBP-1s. […]

Cc1csc(NC(=O)CSc2nc3c(c(C(F)(F)F)c2C#N)CCC3)n1 [Compound 9389]
Grp78 levels (Grp78; listed as Irestatin 9389): does not modulate the expression of Grp78
Grp78 levels (Grp78; listed as irestatin 9389): no effect on Grp78 levels
levels of XBP-1s under hypoxia (XBP-1s; listed as Irestatin 9389): blocks the accumulation of XBP-1s
levels of XBP-1s under hypoxia (XBP-1s; listed as irestatin 9389): decreased levels of XBP-1s
accumulation of XBP-1s following treatment with Tm (XBP-1s; Tm 4 μg/ml 20 hours): blocked the accumulation of XBP-1s
